In patent US7611863B2, “Selective staining of biomembranes using voltage-sensitive dyes” (Max-Planck-Gesellschaft zur Foerderung der Wissenschaften …, priority 2004, dated 2009):

What was measured:
[1] = target: alkaline phosphatase from the human placenta (PLAP) (Homo sapiens, UniProt P05187); test: Enzymatic dye hydrolysis (HPLC, isothermal titration calorimetry); type: biochemical
Protocol: Enzyme kinetics with ITC. We performed enzyme kinetic measurements with Di-4-ASPP phosphate as a substrate of PLAP by isothermal titration calorimetry (ITC). We used Tris-NaCl buffer (20 mM Tris, 100 mM NaCl, pH 8.1) without Zn^2+ and Mg^2+ although most alkaline phosphatases depend on these metals for maximum activity. However, divalent cations bind to lipid membranes and induce their aggregation and fusion^25. The pH-value is a compromise between optimal enzymatic activity (at pH 9.8) and compatibility with vesicles and cells. The microcalorimeter (VP-ITC, Microcal, Northampton, Mass., USA) was thermostatted to 25.0° C., with reference power set to 10 μcal/sec and a stirring speed of 310 rpm. The sample cell contained a PLAP solution of 0.19 DEA Units/ml activity and the syringe was filled with a 1 mM solution of Di-4-ASPP phosphate. The reference cell contained buffer only. Different amounts of dye were injected into the sample cell in separate experiments to cover a concentration range from 2 μM to 15 μM. To determine the heats of dilution alone, injections were carried out with pure buffer. For both hydrolysis and dilution, the baseline signal was approximated by linear or polynomial functions and subtracted from the raw signal resulting in a curve with a flat baseline. The dilution signal was subtracted from the signal of the enzymatic reaction to yield the final calorimeter tracing of enzymatic hydrolysis. The molar heat of reaction was obtained by integration. The initial velocities were determined from the average heat of reaction of the first 10 to 30 seconds after the onset of the reaction, using the mean molar heat of reaction as a proportionality constant. […]
Enzymatic dye hydrolysis. […] We evaluated the heat production per unit time that is proportional to the reaction rate, with the molar heat of reaction being the constant of proportionality^38. […] By calibration with that energy, the initial reaction velocity was evaluated.

[2] = Dye-lipid binding by fluorescence lipid titration; type: physicochemical; details: for KA/KP ratio of binding constants of alcohol and phosphate: liposome suspensions
Protocol: Dye-lipid binding. The binding of the dyes to lipid membranes was determined by fluorescence lipid titration^21 with large unilamellar vesicles (LUVs) made of 1-palmitoyl-2-oleoyl-phosphatidylcholine (POPC). The purity of the lipids was checked by 2-dimensional TLC^22. The vesicles were made by extrusion^23 in Tris-NaCl buffer (20 mM Tris, 100 mM NaCl, pH 8.1), using an extrusion apparatus and polycarbonate filters with 100 nm pore size (both Avestin Europe, Mannheim, Germany). Vesicle size was determined by quasielastic light scattering using an argon ion laser (Spectra-Physics, Darmstadt, Germany), a photomultiplier (Brookhaven Instruments, Vienna, Austria) and a correlator (ALV-5000, Langen, Germany). The lipid concentration was determined by a chromogenic enzyme assay (Biomerieux, Marcy I'Etoile, France). The standard deviation of three concentration measurements for every vesicle preparation was always below 4%. Vesicles were stored under argon at 4° C. in 15 ml Falcon Centrifuge Tubes (BD Labware Europe, Le Pont de Claix, France) and used within three days.
To measure dye binding constants, we prepared 1 mM solutions of the dyes 1-3 by ultrasonication in Ethanol (1) or Tris-NaCl buffer (2,3). […] In the same buffer, suspensions of POPC vesicles with concentrations ranging from 100 nM to 10 mM were prepared by dilution of stock solutions. Dye and lipid were pre-thermostatted to 25° C. […] The fluorescence emission recorded at 600 nm with excitation at 488 nm was used for the evaluation of the partition coefficients.
Dye binding to lipid. When styryl hemicyanines bind to lipid bilayers, their quantum yield of fluorescence is enhanced. […] We take advantage of that effect to examine the binding of Di-4-ASPP phosphate and Di-4-ASPP alcohol to lipid membranes by fluorescence titration^21. For comparison Di-4-ASPBS was also included in the investigation.
Dispersions of large lipid vesicles (Ø≈100 nm) were made from palmitoyl-oleoyl-phosphatidylcholine (POPC) with lipid concentrations ranging over five orders of magnitude. […] The fluorescence intensity was enhanced with increasing concentration of lipid for all three dyes. The enhancement was shifted to higher lipid concentrations in the order Di-4-ASPP alcohol, Di-4-ASPBS and Di-4-ASPP phosphate.
Binding. The dyes Di-10-phosphato-ASPBS (Di-10P-ASPBS) and Di-12-phosphato-ASPBS (Di-12P-ASPBS) as well as the corresponding products after enzymatic hydrolysis Di-10-hydroxy-ASPBS (Di-10A-ASPBS) and Di-12-hydroxy-ASPBS (Di-12A-ASPBS) were synthesized by organic chemical methods. Their binding to lipid membranes was tested by fluorescence lipid titration (cf. page 15, section dye binding to lipid). The binding constants amounted to 27 M^−1 (Di-10P-ASPBS), 250,000 M^−1 (Di-10A-ASPBS), 2100 M^−1 (Di-12P-ASPBS) and 3,000,000 M^−1 (Di-12P-ASPBS) (FIGS. 14 and 15 (center and right hand side)). The difference in binding constants between dye alcohol and dye phosphates (or dye precursors) therefore amounted to a factor of 10,000 for the pair Di-10P-ASPBS/Di-10A-ASPBS and to a factor of 1000 for the pair Di-12P-ASPBS/Di-12A-ASPBS. The binding curve for the more lipophilic pair Di-12P-ASPBS/Di-12A-ASPBS is shifted to […] lipid concentrations.

[3] = tested on: Madine Darby Canine Kidney (MDCK) cells; test: Enzyme induced staining of transiently transfected MDCK cells; type: cell-based; details: 200 nM
Protocol: FIG. 19. Genetically Targeted Staining of MDCK cells with Di-10P-ASPBS and Di-12P-ASPBS. (A) Cells were cotransfected with the membrane-bound phosphatase construct termed ArtPlasMA AP and H2B-GFP, a nucleus-localized transfection marker. Brightfield image and fluorescence images before (−1 sec) and after addition of 200 nM Di-10P-ASPBS. (B) Analogous to row A, but using 200 nM Di-12P-ASPBS. (C) Control experiment. Cells were transfected only with H2B-GFP and incubated with 200 nM Di-12P-ASPBS. Brightfield image and fluorescence images before (−1 sec) and after addition of dye (8 min). (D) Control experiment. Cells were cotransfected with the membrane-bound phosphatase construct termed ArtPlasMA AP and H2B-GFP and incubated with the dye Di-10A-ASPBS. Brightfield image and fluorescence image before (−1 sec) and after addition of dye (20 sec).
Two control experiments were performed: In the first control, cells were transfected only with the transfection marker H2B-GFP. […] In addition, no difference in staining intensity between transfected and untransfected cells can be discerned (FIG. 19C). In the second control experiment, cells were cotransfected with the phosphatase construct and the transfection marker.

Sequence of alkaline phosphatase from the human placenta (PLAP) (P05187 23-506): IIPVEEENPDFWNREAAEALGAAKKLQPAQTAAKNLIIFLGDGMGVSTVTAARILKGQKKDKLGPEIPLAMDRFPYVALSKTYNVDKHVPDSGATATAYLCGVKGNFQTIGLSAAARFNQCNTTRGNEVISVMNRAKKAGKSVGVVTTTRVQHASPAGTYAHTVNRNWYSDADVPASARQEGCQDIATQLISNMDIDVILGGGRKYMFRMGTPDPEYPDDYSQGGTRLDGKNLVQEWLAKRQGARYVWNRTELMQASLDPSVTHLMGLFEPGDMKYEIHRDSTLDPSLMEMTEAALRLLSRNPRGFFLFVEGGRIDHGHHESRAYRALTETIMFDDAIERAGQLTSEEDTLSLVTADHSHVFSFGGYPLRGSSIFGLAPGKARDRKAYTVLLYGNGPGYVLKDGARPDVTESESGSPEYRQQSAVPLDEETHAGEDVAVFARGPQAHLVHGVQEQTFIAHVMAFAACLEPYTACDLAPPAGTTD

Compound	acceptance as substrate by PLAP ([1]; ITC kinetics)	molar heat of hydrolysis (endothermal) ([1]; ITC, 25.0° C., Tris-NaCl pH 8.1) [kcal/mol]	conversion by soluble PLAP (HPLC analysis) ([1]; after incubation, enzyme removed by ultrafiltration)	average binding constant K to lipid membrane ([2]; POPC vesicles, Tris-NaCl buffer pH 8.1, 25° C., dye 0.5 μM) [M⁻¹]	KA/KP ratio of binding constants of alcohol and phosphate ([2]; dye concentration 9.8 μM)	KA/KP ratio of binding constants of alcohol and phosphate ([2]; low dye concentrations)	increment of the binding energy Δ(ΔG) relative to the alcohol ([2]; −RT ln(K/KA)) [kcal/mol]	staining of directly adjacent cells ([3]; after 10 minutes incubation)	localization of staining over several minutes ([3]; cells cotransfected with ArtPlasMA AP and H2B-GFP)	staining of control cells without phosphatase ([3]; transfected only with H2B-GFP)	difference in binding constants between dye alcohol and dye phosphate (precursor) ([2]; pair precursor/product dye) [factor]
CCCCN(CCCC)c1ccc(/C=C/c2cc[n+](CCCOP(=O)([O-])O)cc2)cc1 [Di-4-ASPP phosphate]	accepted by PLAP as a regular substrate	0.263 ± 0.048	quantitatively converted to Di-4-ASPP alcohol	1140 ± 140	≈ 7	≈ 16	1.63	–	–	–	–
Di-12-phosphato-ASPBS [Di-12P-ASPBS]	–	–	–	–	–	–	–	Directly adjacent cells are weakly stained	Staining is well localized even after 10 minutes incubation	only weakly stained	1000
